# Experimental data: US6335363B1, “Use of inhibitors of the KQTI channel and methods of controlling and treating diseases caused by helminths and ectoparasites” (Aventis Pharma Deutschland GmbH, priority 1998, dated 2002)
# Tested on: KQT1 channel
# Experiment: Activity against KQT1 in Xenopus oocytes (two-microelectrode voltage clamp)
# Format: cell-based, Caenorhabditis elegans
# Design: dose or concentration left out as unconfirmed
# Conditions: KQT1 expressed in Xenopus oocytes; slowly activated potassium current
# Description: To test the ct of IKS channel blockers on the KQT1 channel, electrophysiological studies were carried out on Xenopus oocytes which express the KQT1 channel (specific IKS channel of the nematode Caenorhabditis elegans). An adult female frog (Xenopus laevis) was […] oocytes of all development stages were removed from the ovarian bags. Oocytes of the development stages V and VI were selected; using a nanoliter injector mounted in a micromanipulator, 10 ng of the KQT1-specific m-RNA were injected into each oocyte. After 1-4 days, sufficient KQT1 channels were expressed for it to be possible to measure the corresponding currents. For measuring the slowly activated potassium currents under constant intracellular conditions, the two-microelectrode voltage clamp method was employed. This method is based on operating with 2 intracellular microelectrodes; the first electrode measures the membrane potential against a reference electrode, the second electrode is used to inject current which is necessary to maintain a desired potential. During the measurement, the holding potential was adjusted to -80 mV, which corresponds to the open-circuit membrane potential. The electrophysiological measuring stand comprised a vibration-damped experiment table on which were mounted a purpose-made measuring chamber, 2 micromanipulators, in each case with a preamplifier and a holder for injection microelectrodes, and a stereomicroscope. The complete measuring stand was surrounded by a Faraday cage to minimize electrical disturbances during the measurement. During the measurement, the oocyte was suspended in a solution of ND96 buffer. To activate the voltage-dependent IKS channel, the oocyte membrane was depolarized by a voltage jump from the holding potential (-80 mV) to 0 mV, and this state was maintained for 10 seconds before the holding potential was reestablished. The time profile of the measuring protocol was repeated every 45 s. During the depolarization phase, the slowly activated potassium current was measured.
row,Structure (SMILES),Inhibition [%]
1,"CCS(=O)(=O)N(CC(=O)Nc1ccncc1)C1CC(C)(C)Oc2ccc(F)cc21 (stereo not drawn) [2-[ETHANESULFONYL-(6- FLUORO-2,2-DIMETHYL- CHROMAN-4-YL)-AMINO]- N-PYRIDIN-4-YL- ACETAMIDE]",35
2,"CCS(=O)(=O)N(CC(=O)NCCN(C)Cc1ccccc1)C1CC(C)(C)Oc2ccc(F)cc21 (stereo not drawn) [N-[2-(BENZYL-METHYL- AMINO)-ETHYL]-2- [ETHANESULFONYL-(6- FLUORO-2,2-DIMETHYL- CHROMAN-4-YL)-AMINO]- ACETAMIDE]",36
3,"CCS(=O)(=O)N(CC(=O)NCCN(C)C)C1CC(C)(C)Oc2ccc(F)cc21 (stereo not drawn) [N-(2-DIMETHYLAMINO- ETHYL)-2-[ETHANE- SULFONYL-(6-FLUORO- 2,2-DIMETHYL-CHROMAN- 4-YL)-AMINO]- ACETAMIDE]",22
4,"CCS(=O)(=O)N(C)C1CC(C)(C)Oc2cc(Cl)c(F)cc21 (stereo not drawn) [7-CHLORO-4-N- ETHYLSULFONYL-N- METHYLAMINO-6- FLUORO-2,2- DIMETHYLCHROMANE]",89
5,"CCS(=O)(=O)N(CCCC(F)(F)F)C1CC(C)(C)Oc2cc(Cl)c(Cl)cc21 (stereo not drawn) [6,7-DICHLORO-4-[N- ETHYLSULFONYL-N- (4,4,4-TRIFLUORO- BUTYL)AMINO]-2,2- DIMETHYLCHROMANE]",88
6,CCS(=O)(=O)N(C)C1CCCCc2ccc(F)cc21 (stereo not drawn),78
7,"CN(C1=CC(C)(C)Oc2ccc(OCCCC(F)(F)F)cc21)S(C)(=O)=O [N-[2,2-DIMETHYL-6-(4,4,4- TRIFLUOROBUTOXY)-2H- CHROMEN-4-YL]-N- METHYL- METHANESULFONAMIDE]",92
8,"CCS(=O)(=O)N(C)C1CC(C)(C)Oc2cc(OC)c(OC)cc21 (stereo not drawn) [4-N-ETHYLSULFONYL-N- METHYLAMINO-6,7 DIMETHOXY-2,2- DIMETHYLCHROMANE]",30
9,"CCS(=O)(=O)N(C)C1c2cc(C#N)ccc2OC(C)(C)C1O (stereo not drawn) [6-CYANO-4-TRANS-(N- ETHYLSULFONYL-N- METHYLAMINO)-3 HYDROXY-2,2- DIMETHYLCHROMANE]",40
